Assay results published in ChEMBL document CHEMBL1201862, “PubChem BioAssay data set” (2004).
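In this assay, cells in 96-well plates receive the compound at five concentrations for 48 hours. Endpoints are linearly interpolated between the surrounding concentrations. GI50 = concentration required for 50% inhibition of growth.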 Activity calls are given as the source filed them. No stated cut-off is given here; in the data, active = GI50 up to about 1.1 µM and inactive = higher.

Key:
Assay in all cases: NCI-60 cell line screen, 48 h
SF-539 = system: SF-539
BT-549 = system: BT-549
MOLT-4 = system: MOLT-4
EKVX = system: EKVX
NCI/ADR-RES = system: NCI/ADR-RES
UACC-62 = system: UACC-62
MDA-MB-435 = system: MDA-MB-435
SW-620 = system: SW-620
SF-295 = system: SF-295
Malme-3M = system: Malme-3M
IGROV-1 = system: IGROV-1
HCC 2998 = system: HCC 2998
OVCAR-5 = system: OVCAR-5
RXF 393 = system: RXF 393
KM12 = system: KM12
SF-268 = system: SF-268
SNB-75 = system: SNB-75
M14 = system: M14
NCI-H522 = system: NCI-H522
NCI-H226 = system: NCI-H226

Measured: GI50

C[C@@]12C[C@@H](c3ccccc3O1)N1Cc3ccccc3CSC1=N2
inactive: SF-539 51.5 µM | BT-549 95.9 µM | MOLT-4 56.6 µM | EKVX > 100 µM | NCI/ADR-RES > 100 µM | UACC-62 81.5 µM | MDA-MB-435 > 100 µM | SW-620 > 100 µM | SF-295 > 100 µM | Malme-3M 79.8 µM | IGROV-1 > 100 µM | HCC 2998 33.3 µM | OVCAR-5 > 100 µM | RXF 393 > 100 µM | KM12 > 100 µM | SF-268 > 100 µM | SNB-75 > 100 µM | M14 90.4 µM | NCI-H522 49.7 µM | NCI-H226 > 100 µM

CCOc1nnnc2[nH]cnc12
inactive: SF-539 > 100 µM | BT-549 > 100 µM | MOLT-4 > 100 µM | EKVX > 100 µM | NCI/ADR-RES > 100 µM | UACC-62 > 100 µM | MDA-MB-435 > 100 µM | SW-620 > 100 µM | SF-295 > 100 µM | Malme-3M > 100 µM | IGROV-1 > 100 µM | HCC 2998 > 100 µM | OVCAR-5 > 100 µM | RXF 393 > 100 µM | KM12 > 100 µM | SF-268 > 100 µM | SNB-75 > 100 µM | M14 > 100 µM | NCI-H522 > 100 µM | NCI-H226 > 100 µM

Oc1ncc(N(CCCl)CCCl)c(O)n1 [URACIL MUSTARD]
inactive: SF-539 11.7 µM | BT-549 38.5 µM | MOLT-4 1.59 µM | EKVX 85.7 µM | NCI/ADR-RES 23.7 µM | UACC-62 6.7 µM | MDA-MB-435 64 µM | SW-620 35.3 µM | SF-295 14.7 µM | Malme-3M 32.8 µM | IGROV-1 81.3 µM | HCC 2998 62.7 µM | OVCAR-5 39.3 µM | RXF 393 20.7 µM | KM12 89.3 µM | SF-268 12.7 µM | SNB-75 26.3 µM | M14 20.7 µM | NCI-H522 14.3 µM | NCI-H226 48.2 µM

CC(=O)c1c(N=[N+]=[N-])c2cccc3c2n(c1=O)CCC3
inactive: SF-539 27.9 µM | BT-549 20.4 µM | MOLT-4 23.4 µM | EKVX 21.3 µM | NCI/ADR-RES 19.2 µM | UACC-62 16.5 µM | MDA-MB-435 19.1 µM | SW-620 16 µM | SF-295 24.7 µM | Malme-3M 13.2 µM | IGROV-1 20.1 µM | HCC 2998 16.9 µM | OVCAR-5 15.2 µM | RXF 393 20.5 µM | KM12 14.6 µM | SF-268 18.6 µM | SNB-75 24.8 µM | M14 13.6 µM | NCI-H522 13.9 µM | NCI-H226 22.9 µM
